Assays:
hMAO-A = biological target: T1, hMAO-A (Homo sapiens, UniProt P21397); assay: MAO activity screening, hMAO-A; assay type: biochemical; settings: tyramine at 2 × KM (0.8 mM); two independent experiments
T1 sequence (P21397 1-527): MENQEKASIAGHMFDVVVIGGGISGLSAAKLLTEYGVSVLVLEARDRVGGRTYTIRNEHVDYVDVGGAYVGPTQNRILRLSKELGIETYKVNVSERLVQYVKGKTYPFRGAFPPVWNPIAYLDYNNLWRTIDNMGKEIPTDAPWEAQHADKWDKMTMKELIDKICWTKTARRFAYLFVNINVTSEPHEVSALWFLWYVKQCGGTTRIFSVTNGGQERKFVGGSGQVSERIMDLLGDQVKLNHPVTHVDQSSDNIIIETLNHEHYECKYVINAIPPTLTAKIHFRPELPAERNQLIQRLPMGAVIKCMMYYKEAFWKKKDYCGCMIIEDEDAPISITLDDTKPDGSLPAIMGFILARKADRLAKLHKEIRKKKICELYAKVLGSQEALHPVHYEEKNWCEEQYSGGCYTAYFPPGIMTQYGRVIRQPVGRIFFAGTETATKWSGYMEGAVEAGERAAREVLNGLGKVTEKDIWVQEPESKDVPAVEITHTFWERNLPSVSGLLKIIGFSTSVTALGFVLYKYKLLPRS
Method: (§1) Here, the potent selective compound 27 was screened for measuring target selectivity against high structural similar membrane-bound human hMAO-A and hMAO-B at 10 µM in the presence of tyramine at 2 × KM (0.8 mM for MAO-A and 0.32 mM for MAO-B) (Table 5).
(§2) The coupled assay approach was used to evaluate MAO activity in which the product, H2O2, acts with horseradish peroxidase to convert 10-acetyl-3,7-dihydroxyphenoxazine to the fluorescent resorufin. The percent inhibition was computed from the top and bottom of the resultant curve using the equation for a three-parameter curve in GraphPad Prism v. 4, (Graphstats, New York, NY, USA).

in vitro = settings: human, WI38 normal lung fibroblast cells
HepG2 and MCF-7 cells = assay: DNA fragmentation, diphenylamine test; assay type: cell-based, human; settings: 24 h at IC50 value, untreated control about 4.7 ± 0.2%
Method: Apoptosis is characterized by DNA fragmentation, which occurs in all stages of the process. The percentage of fragmented DNA released into the cytoplasm from apoptotic nuclei was determined using a diphenylamine test.
DNA fragmentation was quantitatively determined using a diphenylamine (DPA) reagent according to the method of Boraschi and Maurizi.

MCF-7 cells [1] = assay: MTT cytotoxicity assay, MCF-7; settings: Homo sapiens, MCF7, 72 h, read-out: In Vitro Cytotoxicity IC50 MCF-7
Method: (§4) The in vitro cytotoxic testing of novel derivatives was performed against different three cancer cell lines, HepG2, MCF-7, and HCT116, using standard MTT assay as previously reported [22, 62, 63, 64].

MCF-7 cells [2] = assay: Annexin V-FITC/PI dual staining apoptosis assay; assay type: cell-based, human; settings: MCF-7, 2.0 µM, 24 h
Method: This test used the breast MCF-7 cell line to assess the percentage of apoptosis caused by compound 27, in which MCF-7 cells were treated with compound 27 at 2.0 µM concentration for 24 h to measure the percentage of apoptosis induced by compound 27. […] These findings are in line with statistics derived from DNA content.
Each sample’s histogram was separated into four quadrants to show viable (lower left quadrant), necrotic (higher left quadrant), apoptotic (lower right quadrant), and necrotic/late apoptotic (upper right quadrant) cells. The Annexin V Apoptosis Detection Kit is based on the finding that apoptotic cells can transport phosphatidylserine (PS) from the plasma membrane’s inner surface to the cell surface. As a result, the presence of PS on the cell surface is regarded as an important technique for detecting apoptotic cells. PS can be easily detected by labeling with a fluorescent compound of annexin V, a protein with a high affinity for PS, and then analyzing the results by flow cytometry. When annexin V and PI staining are performed simultaneously, the kit can distinguish between apoptosis and necrosis. Only when the plasma membrane is completely damaged may PI enter the cell. This allows early apoptotic cells (negative for PI but positive for PS) to be distinguished from late apoptotic and necrotic cells (positive for both PI and PS). […] Cells were tested using annexin V and PI double-staining flow cytometry, which detect both PS residues and DNA, respectively, to validate the potential to trigger apoptosis. They were then cultured for 24 h before being examined. The tested compound was able to produce considerable levels of cell death in a dose-dependent manner, according to analyses of early and late apoptosis (Table 4, Figure 2 and Figure 3).
(§3) Using the annexin V-FITC and PI apoptosis kit (eBioscience^TM, San Diego, CA, USA), the apoptosis detection was performed. MCF cells were plated onto a six-well plate at a 600,000 cells/mL density and then treated with compound 27 at […] after 24 h of incubation, and the assay was completed as previously described.
The MCF-7 cells were treated with tested compounds 27 for 24 h and stained with annexin V-FITC/PI to detect externalization of PS from cell membrane and analyze apoptotic and necrotic cell population as previously described.

HepG2 cells = assay: MTT cytotoxicity assay, HepG2; settings: Homo sapiens, HepG2, 72 h, read-out: In Vitro Cytotoxicity IC50 HepG2
Method: as §4

hMAO-B = biological target: T2, hMAO-B (Homo sapiens, UniProt P27338); assay: MAO activity screening, hMAO-B; assay type: biochemical; settings: tyramine at 2 × KM (0.32 mM); two independent experiments
T2 sequence (P27338 1-520): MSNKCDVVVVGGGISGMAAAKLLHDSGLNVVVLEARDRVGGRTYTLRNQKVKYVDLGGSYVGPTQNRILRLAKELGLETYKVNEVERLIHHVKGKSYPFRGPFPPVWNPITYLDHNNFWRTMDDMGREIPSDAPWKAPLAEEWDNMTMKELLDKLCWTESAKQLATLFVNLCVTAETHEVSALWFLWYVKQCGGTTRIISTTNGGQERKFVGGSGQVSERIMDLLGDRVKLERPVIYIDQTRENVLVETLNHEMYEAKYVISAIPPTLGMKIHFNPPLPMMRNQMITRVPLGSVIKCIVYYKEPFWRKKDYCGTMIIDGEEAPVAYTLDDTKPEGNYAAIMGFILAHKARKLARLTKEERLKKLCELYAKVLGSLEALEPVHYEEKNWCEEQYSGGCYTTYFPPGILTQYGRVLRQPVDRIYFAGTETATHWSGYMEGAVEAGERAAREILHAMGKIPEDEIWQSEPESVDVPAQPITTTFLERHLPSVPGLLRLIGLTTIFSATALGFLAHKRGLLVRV
Method: as §1, §2

LSD1 demethylase = LSD1 demethylase (Homo sapiens, UniProt O60341); assay: LSD1 demethylase inhibition assay
Method: The inhibition of LSD1 activity by our tested compounds was evaluated according to a previously reported procedure [65, 66, 67, 68] and as mentioned in the assay kit in Supplementary Materials.

HCT116 cells = assay: MTT cytotoxicity assay, HCT116; settings: Homo sapiens, HCT-116, 72 h, read-out: In Vitro Cytotoxicity IC50 HCT116
Method: as §4

MCF-7 cells [3] = assay: Cell cycle analysis by flow cytometry; assay type: cell-based, human; design: DNA Content %G0-G1 / DNA Content %S / DNA Content %G2-M / DNA Content %Pre G1: dose or concentration left out as unconfirmed; settings: MCF-7, 24 h
Method: The cell cycle is a series of growth and development processes that culminate in DNA replication and cell division. G1 phase, S phase (synthesis), G2 phase, and M phase are the four different phases. We chose our promising chemical 27 based on the results of the MTT assay (Table 1) to further examine its effect on the apoptotic process and investigate its ability to play an active role in cell cycle progression in MCF-7 cells. MCF-7 cells were treated for 24 h with compound 27 at a concentration of […], and flow cytometry was performed in the presence of annexin V-FITC/PI.
as §3
Cell cycle arrest and distribution was assessed, using the Propidium Iodide Flow Cytometry Kit (ab139418, Abcam, USA, CA, USA), followed by flow cytometry analysis according to the previous methodology.

IC50 (hMAO-A): 87.1 ± 2.36 µM
IC50 at 72 h (in vitro): > 85 µM
IC50 (hMAO-B): > 100 µM
IC50 (LSD1 demethylase; LSD1 inhibition IC50, as quoted in the docking section): 0.0464 µM
IC50 (LSD1 demethylase; LSD1 inhibitory IC50, Table 2, mean ± S.D., at least three tests): 0.046 ± 0.003 µM
Structure (SMILES): C=CCNc1nnc(-c2cc(-c3nnc(NCC=C)s3)cc(-c3nnc(NCC=C)s3)c2)s1 [Compound 27, 5,5′,5″-(benzene-1,3,5-triyl)tris(N-allyl-1,3,4-thiadiazol-2-amine)]
Percentage of DNA fragmentation (HepG2 and MCF-7 cells): ~23 ± 1.2%
IC50 (MCF-7 cells [1]): 1.52 ± 1.02 µM
Apoptosis Early (MCF-7 cells [2]): 5.33%
Apoptosis Late (MCF-7 cells [2]): 20.53%
Apoptosis Total (MCF-7 cells [2]): 37.11%
Enhancement of late apoptosis compared with untreated cells (MCF-7 cells [2]): 114 fold
Necrosis (MCF-7 cells [2]): 11.25%
IC50 (HepG2 cells): 24.7 ± 1.01 µM
IC50 (HCT116 cells): 10.3 ± 0.15 µM
Comment (cell cycle) (MCF-7 cells [3]): pre G1 Apoptosis and cell cycle arrest at G2-M
DNA Content %G0-G1 (MCF-7 cells [3]): 35.15%
DNA Content %G2-M (MCF-7 cells [3]): 35.59%
DNA Content %Pre G1 (MCF-7 cells [3]): 37.11%
DNA Content %S (MCF-7 cells [3]): 28.26%
